In patent US20230357166A1, “PIPERAZINE-BASED CATIONIC LIPIDS” (TRANSLATE BIO, INC., priority 2020, published 2023):

tested on: male CD1 mice; experiment: Delivery of Firefly Luciferase (FFL) mRNA by intratracheal administration of lipid nanoparticles; format: in vivo; conditions: lipid nanoparticles (Process A) with FFL mRNA, cationic lipid, DMG-PEG2000, cholesterol and DOPE (40:5:25:30 or 45:5:20:30 mol %); single intratracheal aerosol administration; IVIS imaging approximately 24 hours post-dose; FIG. 1
Method: One exemplary process for lipid nanoparticle formulation is Process A of WO 2018/089801 (see, e.g., Example 1 and FIG. 1 of WO 2018/089801). Process A (“A”) relates to a conventional method of encapsulating mRNA by mixing mRNA with a mixture of lipids, without first pre-forming the lipids into lipid nanoparticles. In an exemplary process, an ethanol lipid solution and an aqueous buffered solution of mRNA were prepared separately. A solution of mixture of lipids (cationic lipid, helper lipids, zwitterionic lipids, PEG lipids etc.) was prepared by dissolving lipids in ethanol. The mRNA solution was prepared by dissolving the mRNA in citrate buffer. Then, these two solutions were mixed using a pump system. In some instances, the two solutions were mixed using a gear pump system. In certain embodiments, the two solutions were mixing using a ‘T’ junction (or “Y” junction). The mixture was then purified by diafiltration with a TFF process. The resultant formulation concentrated and stored at 2-8° C. until further use.
Lipid nanoparticle formulations prepared using Process A comprising FFL mRNA, cationic lipid, DMG-PEG2000, cholesterol and DOPE (40:5:25:30 or 45:5:20:30 mol % ratio) were administered to male CD1 mice (6-8 weeks old) by a single intratracheal aerosol administration via a Microsprayer® (50 ul/animal) while under anesthesia. At approximately 24 hours post-dose, the animals were dosed with luciferin at 150 mg/kg (60 mg/ml) by intraperitoneal injection at 2.5 ml/kg. After 5-15 minutes, all animals were imaged using an IVIS imaging system to measure luciferase production in the lung.

Row | Compound | in vivo protein production (FFL protein; luciferase production in the lung)
1 | CCCCCCCCC(O)CN(CCCC(=O)OCCN1CC(C)N(CCOC(=O)CCCN(CC(O)CCCCCCCC)CC(O)CCCCCCCC)CC1C)CC(O)CCCCCCCC (stereo not shown) [Compound A9] | high levels of in vivo protein production
2 | CCCCCCCCCCC(O)CN(CCCCC(=O)OCCN1CC(C)N(CCOC(=O)CCCCN(CC(O)CCCCCCCCCC)CC(O)CCCCCCCCCC)CC1C)CC(O)CCCCCCCCCC (stereo not shown) [Compound A18] | high levels of in vivo protein production
3 | CCCCCCCCC(O)CN(CCCCC(=O)SCCN1CC(C)N(CCSC(=O)CCCCN(CC(O)CCCCCCCC)CC(O)CCCCCCCC)CC1C)CC(O)CCCCCCCC (stereo not shown) [Compound C17] | high levels of in vivo protein production
4 | CCCCCCCCCCCCC(O)CN(CCCC(=O)OCCN1CC(C)N(CCOC(=O)CCCN(CC(O)CCCCCCCCCCCC)CC(O)CCCCCCCCCCCC)CC1C)CC(O)CCCCCCCCCCCC (stereo not shown) [Compound A11] | high levels of in vivo protein production
5 | CCCCCCCCC(O)CN(CCCC(=O)SCCN1CC(C)N(CCSC(=O)CCCN(CC(O)CCCCCCCC)CC(O)CCCCCCCC)CC1C)CC(O)CCCCCCCC (stereo not shown) [Compound C9] | high levels of in vivo protein production
6 | CCCCC/C=C\C/C=C\CCCCCCC(O)CN(CCCC(=O)OCCN1CC(C)N(CCOC(=O)CCCN(CC(O)CCCCCC/C=C\C/C=C\CCCCC)CC(O)CCCCCC/C=C\C/C=C\CCCCC)CC1C)CC(O)CCCCCC/C=C\C/C=C\CCCCC (stereo not shown) [Compound A15] | high levels of in vivo protein production
7 | CC(C)CCCCCCCOC(=O)CCN(CCCCC(=O)OCCN1CC(C)N(CCOC(=O)CCCCN(CCC(=O)OCCCCCCCC(C)C)CCC(=O)OCCCCCCCC(C)C)CC1C)CCC(=O)OCCCCCCCC(C)C (stereo not shown) [Compound D23] | high levels of in vivo protein production
8 | CCCCCCCCOC(=O)CCN(CCCCC(=O)OCCN1CC(C)N(CCOC(=O)CCCCN(CCC(=O)OCCCCCCCC)CCC(=O)OCCCCCCCC)CC1C)CCC(=O)OCCCCCCCC (stereo not shown) [Compound D21] | high levels of in vivo protein production
9 | CCCCCCCCCCCCC(O)CN(CCCCC(=O)OCCN1CC(C)N(CCOC(=O)CCCCN(CC(O)CCCCCCCCCCCC)CC(O)CCCCCCCCCCCC)CC1C)CC(O)CCCCCCCCCCCC (stereo not shown) [Compound A19] | high levels of in vivo protein production
10 | CCCCCCCCC(O)CN(CCCCC(=O)OCCN1CC(C)N(CCOC(=O)CCCCN(CC(O)CCCCCCCC)CC(O)CCCCCCCC)CC1C)CC(O)CCCCCCCC (stereo not shown) [Compound A17] | high levels of in vivo protein production
